Data: the NIST ThermoML archive (doi:10.1021/je0302001)

Assay: mn = molality of the nth substance listed, in mol/kg
Settings: for speed of sound / mass density / viscosity: 101.3 kPa, Liquid; for viscosity: Capillary tube (Ostwald / Ubbelohde) method; for surface tension liquid-gas: Ring tensiometer

O=[N+]([O-])[O-].O=[N+]([O-])[O-].[Zn+2] [nitric acid, zinc salt] + O
Settings | mass density [kg/m3] | speed of sound [m/s] | surface tension liquid-gas [mN/m] | viscosity [mPa·s]
303.15 K, m1 = 2.145 | – | 1622.9 | – | –
303.15 K, m1 = 2.29 | – | 1632.6 | – | –
303.15 K, m1 = 2.292 | – | 1630.1 | – | –
303.15 K, m1 = 2.344 | – | 1634.7 | – | –
303.15 K, m1 = 2.91 | – | 1664 | – | –
303.15 K, m1 = 3.472 | – | 1691.2 | – | –
303.15 K, m1 = 4.075 | – | 1714.1 | – | –
303.15 K, m1 = 4.817 | – | 1739.4 | – | –
303.15 K, m1 = 5.224 | – | 1748.1 | – | –
303.15 K, m1 = 5.797 | – | 1760.4 | – | –
303.15 K, m1 = 6.34 | – | 1768.2 | – | –
303.15 K, m1 = 6.89 | – | 1772.4 | – | –
303.15 K, m1 = 7.349 | – | 1774 | – | –
303.2 K, m1 = 6.89 | 1705.2 | – | – | –
303.25 K, m1 = 5.8 | 1629.7 | – | – | –
303.65 K, m1 = 0.6111 | 1084.7 | – | – | –
303.65 K, m1 = 1.906 | 1255.3 | – | – | –
303.7 K, m1 = 0.3388 | 1045.4 | – | – | –
303.75 K, m1 = 1.113 | 1154 | – | – | –
303.75 K, m1 = 1.258 | 1173.4 | – | – | –
303.75 K, m1 = 4.075 | 1486.4 | – | – | –
303.85 K, m1 = 4.817 | 1551.9 | – | – | –
303.95 K, m1 = 2.29 | 1300.6 | – | – | –
304 K, m1 = 3.472 | 1428.2 | – | – | –
304.15 K, m1 = 5.224 | 1584.8 | – | – | –
304.2 K, m1 = 7.349 | 1732.6 | – | – | –
304.3 K, m1 = 1.551 | 1210.3 | – | – | –
304.3 K, m1 = 2.344 | 1306.7 | – | – | –
304.35 K, m1 = 0.6405 | 1088.5 | – | – | –
304.45 K, m1 = 2.292 | 1300.6 | – | – | –
304.85 K, m1 = 0.1329 | 1014.5 | – | – | –
304.85 K, m1 = 2.91 | 1369.1 | – | – | –
304.85 K, m1 = 6.89 | 1703.4 | – | – | –
305.1 K, m1 = 5.8 | 1627.9 | – | – | –
305.4 K, m1 = 2.145 | 1282.8 | – | – | –
305.45 K, m1 = 6.34 | 1666.3 | – | – | –
305.65 K, m1 = 0.0875 | 1007.5 | – | – | –
305.65 K, m1 = 4.075 | 1484.9 | – | – | –
305.7 K, m1 = 1.906 | 1254.1 | – | – | –
306.1 K, m1 = 1.258 | 1172 | – | – | –
306.15 K, m1 = 2.29 | 1299.2 | – | – | –
306.25 K, m1 = 0.2466 | 1031 | – | – | –
306.25 K, m1 = 1.113 | 1152.7 | – | – | –
306.3 K, m1 = 2.344 | 1305.3 | – | – | –
306.35 K, m1 = 0.6111 | 1083.6 | – | – | –
306.35 K, m1 = 2.292 | 1299.4 | – | – | –
306.55 K, m1 = 1.551 | 1209.4 | – | – | –
306.6 K, m1 = 0.3388 | 1044.3 | – | – | –
306.75 K, m1 = 2.91 | 1367.8 | – | – | –
307.05 K, m1 = 0.6405 | 1087.4 | – | – | –
307.35 K, m1 = 2.145 | 1281.5 | – | – | –
307.5 K, m1 = 4.817 | 1548.6 | – | – | –
307.55 K, m1 = 4.075 | 1483.4 | – | – | –
307.55 K, m1 = 7.349 | 1729.2 | – | – | –
307.75 K, m1 = 3.472 | 1425.1 | – | – | –
307.75 K, m1 = 5.224 | 1581.5 | – | – | –
307.85 K, m1 = 0.1329 | 1013.4 | – | – | –
307.9 K, m1 = 1.906 | 1252.7 | – | – | –
308.15 K, m1 = 0.0875 | – | 1525.6 | – | –
308.15 K, m1 = 0.1329 | – | 1523.4 | – | 0.76
308.15 K, m1 = 0.2466 | – | 1527.9 | – | 0.787
308.15 K, m1 = 0.3388 | – | 1532.5 | – | 0.809
308.15 K, m1 = 0.6111 | – | 1543.7 | – | 0.884
308.15 K, m1 = 0.6405 | – | 1544.7 | – | 0.892
308.15 K, m1 = 1.113 | – | 1566.6 | – | 1.044
308.15 K, m1 = 1.258 | – | 1576.6 | – | 1.107
308.15 K, m1 = 1.551 | – | 1592.5 | – | 1.216
308.15 K, m1 = 1.906 | – | 1612.5 | – | 1.405
308.15 K, m1 = 2.145 | – | 1624.2 | – | 1.548
308.15 K, m1 = 2.29 | – | 1632.3 | – | 1.622
308.15 K, m1 = 2.292 | – | 1630.7 | – | –
308.15 K, m1 = 2.344 | – | 1635 | – | 1.645
308.15 K, m1 = 2.91 | – | 1662.2 | – | 2.035
308.15 K, m1 = 3.472 | – | 1687 | – | 2.554
308.15 K, m1 = 4.075 | – | 1708.9 | – | 3.149
308.15 K, m1 = 4.817 | – | 1733.1 | – | 4.24
308.15 K, m1 = 5.224 | – | 1740.5 | – | 4.878
308.15 K, m1 = 5.797 | – | 1751.6 | – | 6.183
308.15 K, m1 = 6.34 | – | 1757.7 | – | 7.469
308.15 K, m1 = 6.89 | – | 1762.2 | – | 9.274
308.15 K, m1 = 7.349 | – | 1762.6 | – | 10.94
308.25 K, m1 = 2.344 | 1303.9 | – | – | –
308.3 K, m1 = 1.258 | 1170.8 | – | – | –
308.35 K, m1 = 1.113 | 1151.6 | – | – | –
308.35 K, m1 = 6.89 | 1699.9 | – | – | –
308.6 K, m1 = 1.551 | 1208.2 | – | – | –
308.75 K, m1 = 0.0875 | 1006.4 | – | – | –
308.75 K, m1 = 5.8 | 1624.4 | – | – | –
308.85 K, m1 = 2.91 | 1366.3 | – | – | –
309.05 K, m1 = 0.6111 | 1082.4 | – | – | –
309.1 K, m1 = 6.34 | 1662.7 | – | – | –
309.15 K, m1 = 0.2466 | 1029.9 | – | – | –
309.35 K, m1 = 4.817 | 1546.9 | – | – | –
309.4 K, m1 = 0.3388 | 1043.2 | – | – | –
309.45 K, m1 = 0.6405 | 1086.3 | – | – | –
309.45 K, m1 = 2.145 | 1280.1 | – | – | –
309.55 K, m1 = 3.472 | 1423.6 | – | – | –
309.55 K, m1 = 5.224 | 1579.9 | – | – | –
310.1 K, m1 = 2.29 | 1296.5 | – | – | –
310.35 K, m1 = 2.344 | 1302.6 | – | – | –
310.45 K, m1 = 1.258 | 1169.6 | – | – | –
310.45 K, m1 = 2.292 | 1296.6 | – | – | –
310.45 K, m1 = 5.8 | 1622.9 | – | – | –
310.7 K, m1 = 1.113 | 1150.3 | – | – | –
310.7 K, m1 = 2.91 | 1364.9 | – | – | –
310.75 K, m1 = 0.1329 | 1012.3 | – | – | –
310.75 K, m1 = 6.34 | 1661.1 | – | – | –
310.8 K, m1 = 7.764 | 1749.7 | – | – | –
310.85 K, m1 = 1.551 | 1206.9 | – | – | –
310.95 K, m1 = 7.349 | 1725.6 | – | – | –
311.15 K, m1 = 4.817 | 1545.4 | – | – | –
311.25 K, m1 = 5.224 | 1578.2 | – | – | –
311.35 K, m1 = 0.6111 | 1081.4 | – | – | –
311.35 K, m1 = 3.472 | 1422.1 | – | – | –
311.35 K, m1 = 4.075 | 1480.4 | – | – | –
311.4 K, m1 = 2.145 | 1278.8 | – | – | –
311.5 K, m1 = 0.0875 | 1005.4 | – | – | –
311.7 K, m1 = 6.89 | 1696.5 | – | – | –
311.85 K, m1 = 0.2466 | 1028.8 | – | – | –
311.85 K, m1 = 0.3388 | 1042.2 | – | – | –
311.9 K, m1 = 0.6405 | 1085.1 | – | – | –
311.9 K, m1 = 1.906 | 1250.1 | – | – | –
312 K, m1 = 2.29 | 1295.1 | – | – | –
312.25 K, m1 = 5.8 | 1621 | – | – | –
312.35 K, m1 = 2.292 | 1295.2 | – | – | –
312.55 K, m1 = 6.34 | 1659.2 | – | – | –
312.7 K, m1 = 1.258 | 1168.4 | – | – | –
312.85 K, m1 = 1.113 | 1149.1 | – | – | –
312.95 K, m1 = 1.551 | 1205.6 | – | – | –
313.05 K, m1 = 5.224 | 1576.6 | – | – | –
313.15 K, m1 = 0.0875 | – | 1533.4 | – | –
313.15 K, m1 = 0.1329 | – | 1531.7 | – | 0.691
313.15 K, m1 = 0.2263 | – | – | 70.59 | –
313.15 K, m1 = 0.2466 | – | 1535.7 | – | 0.716
313.15 K, m1 = 0.334 | – | – | 70.83 | –
313.15 K, m1 = 0.3388 | – | – | – | 0.739
313.15 K, m1 = 0.6111 | – | – | – | 0.805
313.15 K, m1 = 0.6198 | – | – | 71.5 | –
313.15 K, m1 = 0.6405 | – | – | – | 0.813
313.15 K, m1 = 0.8228 | – | – | 72.2 | –
313.15 K, m1 = 1.113 | – | – | – | 0.952
313.15 K, m1 = 1.258 | – | – | – | 1.01
313.15 K, m1 = 1.259 | – | – | 73.37 | –
313.15 K, m1 = 1.549 | – | – | 74.1 | –
313.15 K, m1 = 1.551 | – | – | – | 1.106
313.15 K, m1 = 1.818 | – | – | 74.61 | –
313.15 K, m1 = 1.906 | – | – | – | 1.277
313.15 K, m1 = 2.145 | – | – | – | 1.408
313.15 K, m1 = 2.222 | – | – | 76.05 | –
313.15 K, m1 = 2.29 | – | – | – | 1.475
313.15 K, m1 = 2.344 | – | – | – | 1.495
313.15 K, m1 = 2.526 | – | – | 77.02 | –
313.15 K, m1 = 2.721 | – | – | 77.55 | –
313.15 K, m1 = 2.91 | – | – | – | 1.843
313.15 K, m1 = 3.426 | – | – | 79.09 | –
313.15 K, m1 = 3.472 | – | – | – | 2.305
313.15 K, m1 = 4.011 | – | – | 80.79 | –
313.15 K, m1 = 4.075 | – | – | – | 2.868
313.15 K, m1 = 4.231 | – | – | 81.05 | –
313.15 K, m1 = 4.817 | – | – | – | 3.774
313.15 K, m1 = 5.133 | – | – | 83.04 | –
313.15 K, m1 = 5.224 | – | – | – | 4.322
313.15 K, m1 = 5.797 | – | – | – | 5.432
313.15 K, m1 = 6.245 | – | – | 84.64 | –
313.15 K, m1 = 6.34 | – | – | – | 6.509
313.15 K, m1 = 6.89 | – | – | – | 7.997
313.15 K, m1 = 7.349 | – | – | – | 9.383
